Assay results: US12472223B2, “Methods for reducing symptoms of multiple sclerosis using a six-amino acid long peptide that inhibits CD40-CD154 interaction” (OP-T LLC, priority 2019, dated 2025)

What was measured:
[1] = tested on: CD4+ and CD8+ cells; assay: CD4/CD8 ratio in blood of peptide-treated NOD mice (flow cytometry); type: in vivo, mouse
Method: (§1) Peptides were designed based on the amino acid sequence of mouse CD154 protein (SEQ ID NO:1) in the SwissPro database. These pre-designed peptides were then ordered from as made-to-order by New England Peptide. The lyophilized peptides were suspended in phosphate buffered saline at 1 mg/ml. 100 μg of a particular peptide was then injected into the tail vein of 8-9 week old NOD mice. Control mice received 100 μl of phosphate buffered saline. This is well before the onset of diabetes, but after damage to pancreatic islets has begun. Three days after the initial injection, another 100 μg of peptide (or 100 μl of phosphate buffered saline in the case of the Control mice) was injected into the tail vein. Mice were then injected with peptide (or phosphate buffered saline) on a weekly basis. At 10 weeks of age, mice were monitored for diabetes, as indicated by a blood glucose level greater than 250 mg/dL for three consecutive days. During this time, blood was also taken from the tail vein, or by sub-mandibular venal puncture, and the level of CD4+ and CD8+ cells determined by flow cytometry using antibodies for CD4 protein and CD8 protein.

[2] = tested on: NOD mice; assay: Development of diabetes in NOD mice treated with CD154 peptides; type: in vivo, mouse; conditions: 100 μg peptide into tail vein of 8-9 week old NOD mice, again after 3 days, then weekly; diabetes = blood glucose >250 mg/dL for three consecutive days
Method: as §1

[3] = tested on: EAE induced C57BL/6 mice; assay: EAE disease score in MOG35-55 induced C57BL/6 mice; type: in vivo, mouse
Text: One group of mice-C57BL/6 mice from Taconic (Hudson, NY, USA) received KGYY6 (SEQ ID NO: 29) intravenous (IV) injections 3 days and 1 day prior to EAE induction, while another control group received a vehicle of phosphate buffered saline (PBS). EAE was then induced and the mice started to show symptoms on day 10, which is standard for these mice under these conditions. This is further depicted in FIG. 11. On days 13, 20, and 27, the KGYY6 group of mice receive a boost of peptide, while the other group again received PBS via IV injection. […] By day 13, there was a statistically significant difference that lasted throughout the experiment. In FIG. 11—*—asterisks—denote p-value: *—one asterisk is <0.05; **—two asterisks is <0.01; […] is <0.001; and ****—four asterisks is <0.0001. This is a two-way ANOVA with Sidak's multiple comparisons test. Arrows in above lines in FIG. 11 represent days −3, −1, 13, 20, and 27, which correspond to days on which the mice received the KGYY6. Mice were disease scored daily in this study as described in more detail below.
The EAE mouse model can be highly variable even when attempting to control all possible parameters. This variability in EAE may be due to seasonal variations as well as litter differences in the mice. In order to minimize litter-to-litter and seasonal variations, experiments and studies were performed that had 10 mice per group and the mice were randomly mixed once they arrived from the vendor. Female 10-12 week old C57BL/6 mice were immunized subcutaneously on the upper back/neck with 100 μl completely emulsified MOG35-55 peptide (50 μg in 50 μl PBS) and complete Freund's adjuvant (CFA; 75 μg M. Tuberculosis H37 RA (Becton Dickinson and Company (Franklin Lake, NJ, USA)) in 50 μl incomplete Freund's adjuvant (mineral oil)), followed by i.p. pertussis toxin (PT; 200 ng (Sigma-Aldrich® (St. Louis, MO, USA)) in 100 μl PBS) injections. Mice were then randomly assigned to a treatment cohort or vehicle control cohort. One cohort of mice received intravenous injections of the KGYY6 (SEQ ID NO: 29)—25 μg in 100 μl PBS per mouse on days −3, −1, 13, 20, and 27 as described above. Day 0 is the reference starting point for EAE induction. Another cohort received peptide on days −3, −1, 6, 11, 13, and 15. Vehicle control mice received injections of PBS.
All mice were monitored daily for disease and scored in the following manner: 0—no abnormalities; 0.5—clutching hind limbs; 1—limp tail or weak hind limbs and/or wobbly gait; 1.5—limp tail and clutching hind limbs; 2—limp tail and weak hind limbs and/or wobbly gait wherein the mouse supports itself and propels itself using hind limbs; 2.5—limp tail and weak hind limbs and/or wobbly gait wherein the mouse cannot support and propel itself using hind limbs, but the paws are moving. 3—limp tail and one weak hind limb, while the other hind limb is completely paralyzed wherein the mouse uses the weak hind limb to propel itself in some fashion. […] 5—complete paralysis of hind quarter and weak forelimb(s). The data are reported as the mean daily clinical score for all animals in each group. Mice reaching a level 5 or losing more than 20% of their bodyweight are euthanized.
For this study, a group of EAE induced mice were treated with KGYY6 via intravenous (IV) injections on days 11, 13, and 15. Another group of mice were pretreated on days −3 and −1, and received further treatments on days 6, 11, 13, and 15. […]

[4] = tested on: CD69; assay: CD69 expression on T cells from dLN and spleen of KGYY6 treated EAE mice; type: in vivo, mouse; conditions: for number of Th40 cells expressing CD69: after 33 days
Method: In this study, the number of CD69 expressing cells were measured and determined in draining lymph nodes (dLN) and spleens harvested from EAE mice at the end of the studies as described in Examples 7, 8, and 9 and the administration of KGYY6, after 33 days.
Lymphocytes from dLN or spleen were stained and gated on the Th40 or conventional CD4 T cells then CD69 expression was analyzed.

[5] = tested on: CD62L; assay: CD62L expressing T cells from dLN and spleen of KGYY6 treated EAE mice; type: in vivo, mouse; conditions: Th40 and conventional CD4 T cells, versus PBS
Text: L-selectins are expressed on T cells and, depending upon activation status, expression rapidly cycles between high and low levels, thus allowing cells to crawl to areas of inflammation, and to extravasate into the tissue. (Mao-Draayer, Y., et al., Clinical Immunol. 175:10-5, 2017; Butcher, E. C., et al., Science, 272 (5258): 60-6, 1997). CD62L is an L-selectin that has generally been associated with naïve T cells, given its importance in lymph node retention. (Chao, C. C., et al., J. Immunol., 159:1686, 1997; Tedder, T. F., et al., Behring Inst. Mitt., 92:165, 1993). Rather than considering CD62L as a biomarker for naïve T cells, it may be possible that CD62L may be involved in lymph node retention of potentially pathogenic effector cells. The number of CD62L expressing Th40 and conventional CD4 T cells from both spleens and dLN of KGYY6 treated mice were compared to mice treated with vehicle (PBS) only (the control).

[6] = tested on: intracellular cytokines; assay: Intracellular cytokine expression in Th40 and conventional CD4 T cells ex vivo from KGYY6 treated EAE mice; parameters: species or system mouse
Method: Intracellular cytokine expression profiles in Th40 and conventional CD4 T cells were examined immediately ex-vivo after 33 days and at the end of the study as described in Example 7.
Other cytokines, such as TNFα, IFNγ, IL-2, and IL-17A were unchanged in response to KGYY6 treatment in both cell types. […] Lymphocytes from dLN or spleen were stained and gated on the Th40 or conventional CD4 T cells then intracellular levels were analyzed. FIGS. 18A-D represent the Th40 cells from spleen. FIGS. 19A-D represent the Th40 cells from dLN. FIGS. 20A-D represent conventional CD4 T cells from the spleen. FIGS. 21A-D represent conventional CD4 T cells from dLN.

[7] = tested on: Th40 or conventional CD4 T cells; assay: Memory cell and Th40 cell levels in KGYY6 treated EAE mice; type: in vivo, mouse
Method: This study sought to determine whether treatment with KGYY6 had any effect on memory cell levels when administered as described in Example 7 above.
C57BL/6 mice were EAE induced then lymphocytes were stained and gated on Th40 or conventional CD4 T cells and effector and central memory cell levels analyzed in dLN (FIGS. 22A-22D) and spleen (FIGS. 23A-D). Significance was calculated by t-test.

[8] = tested on: CD40; assay: FITC-conjugated KGYY6 staining of PBMC, dLN and splenic lymphocytes; type: binding, mouse
Text: To confirm that KGYY6 binds to the intended target cells, peripheral blood was […], dLN lymphocytes, and splenic lymphocytes from mice at 6 and 13 days out from receiving the full EAE regimen. These cells were then stained with an FITC-conjugated KGYY6.
To confirm that the KGYY6 peptide binds specifically to CD40, PBMC was stained from C57BL/6 mice that have the CD154-interacting domain of CD40 knocked out (B6.CD40KO).
FIG. 24A is a dot plot of PBMC, dLN, and splenic lymphocytes that were harvested and then stained. […] CD40 with heat-mapping for KGYY6. Dot plots on the right are CD62L v. CD44 with heat-mapping for KGYY6. […] The results shown in FIG. 24A are from 6 days post EAE induction. FIG. 24B is a histogram depicting KGYY6 staining of B6.CD40KO, control, non-induced C57BL/6, and EAE-induced C57BL/6 mice, 6 and 13 days post induction. Data represents two mice at day 6, three mice at day 13, all with similar results.

[9] = Th40 and conventional CD4 T cells, dLN and spleen
[10] = spleen and dLN, Th40 or conventional CD4 T cells

In the case of `CSCC[C@H](NC(=O)[C@@H](NC(=O)[C@H](Cc1ccc(O)cc1)NC(=O)[C@H](Cc1ccc(O)cc1)NC(=O)CNC(=O)[C@H](CCCCN)NC(=O)[C@H](CCCCN)NC(=O)[C@H](C)NC(=O)[C@H](Cc1c[nH]c2ccccc12)NC(=O)[C@H](CCC(N)=O)NC(=O)[C@H](CC(C)C)NC(=O)[C@@H](N)C(C)C)[C@@H](C)O)C(=O)N[C@@H](CCCCN)C(=O)N[C@@H](CO)C(=O)N[C@@H](CC(N)=O)C(=O)O` [15-mer peptide, VLQWAKKGYYTMKSN], the “compromise of the immune system as determined by the CD4/CD8 ratio” value [1] was “did not result in compromise of the immune system”.

With “AKKGYY [KGYY6, 6-amino acid core region of the 15-mer]” the “development of diabetes in NOD mice” value [2] was “significant effects on the development of diabetes”, the EAE disease course ([3]; 25 μg IV on days -3, -1, 13, 20, 27, versus PBS control) was “significantly less severe” and the EAE disease course ([3]; pretreated days -3, -1, further treatments days 6, 11, 13, 15, versus control) was “significantly less severe disease course”. The “EAE disease severity, early versus later boosts” value ([3]; pretreated, boosts from day 6 versus from day 13) was “overall less severe disease if the boosts started early”, the EAE disease course ([3]; treat-at-symptom group, IV on days 11, 13, 15) was “less severe disease course compared to control” and the “CD69 expressed per cell” value ([4]; Th40 cells from spleen, versus vehicle) was “significantly more CD69 per cell”. The “CD69 expressed per cell” value ([4]; conventional CD4 T cells) was “did no change the amount of CD69 per cell”, the “number of conventional CD4 T cells expressing CD69” value ([4]; dLN and spleen, versus controls) was “increased by KGYY6 treatment” and the “number of Th40 cells expressing CD69” value ([4]; dLN, versus vehicle) was “increased”. For the same molecule, the “number of Th40 cells expressing CD69” value ([4]; spleen, versus untreated) was “significantly greater number”, the “number of CD62L expressing cells” value [5] was “no difference in number of CD62L expressing cells” and the IFNγ [6, 9] was “unchanged”. The IL-2 [6, 9] was “unchanged”, the IL-17A [6, 9] was “unchanged” and the TNFα [6, 9] was “unchanged”. For the same molecule, the “intracellular IL-10” value ([6]; Th40 cells, dLN or spleen) was “no difference in intracellular IL-10 expression”, the “intracellular IL-10” value ([6]; conventional CD4 T cells from dLN, day 33) was “increase in intracellular IL-10” and the Th40 cell population ([7]; EAE mice treated with KGYY6) was “did not cause a decrease in the Th40 cell population”. For the same molecule, the “CD44+CD62L+ (central memory) cell levels” value [7, 10] was “no difference in the levels of those memory phenotypes”, the “CD44+CD62L- (effector memory) cell levels” value [7, 10] was “no difference in the levels of those memory phenotypes” and the “staining of memory cells (CD62L versus CD44)” value ([8]; PBMC and spleen samples) was “stained primarily effector (CD44^+CD62L^−) and central memory (CD44^+CD62L^+) cells”. The “staining of B6.CD40KO cells” value ([8]; PBMC, CD154-interacting domain of CD40 knocked out) was “did not stain the B6.CD40KO cells”, the “staining of CD40- cells” value ([8]; PBMC, dLN, spleen) was “not the CD40^− cells” and the “staining of CD4+CD40+ cells” value ([8]; PBMC, dLN, spleen, 6 and 13 days post EAE induction) was “stained the CD4^+CD40^+ cells”. For the same molecule, the “staining of memory cells (CD62L versus CD44)” value ([8]; dLN samples) was “more diffuse pattern in dLN samples” and the “staining of C57BL/6 PBMC” value ([8]; non-induced and EAE-induced C57BL/6 mice) was “readily stained both the non-induced and EAE-induced C57BL/6 mice”.

For KGYY (listed as Mus musculus), the EAE scores ([3]; 4-mer administered prior to onset and then post onset, versus untreated mice) was “lower EAE scores compared to untreated mice”.

For WAKKGYYTMK [10-mer], the “development of diabetes in NOD mice” value [2] was “significant effects on the development of diabetes”.
